Literature values as cited in patent publication US6846831B2, “Method of treating the syndrome of lipodystrophy” (CPD, LLC, priority 2000, dated 2005).

Key:
κ opioid receptor = κ opioid receptor (Rattus norvegicus, UniProt P34975); settings: read-out: κ IC50; homogenates of rat brain minus cerebellum; prototype ligand EKC
δ opioid receptor = δ opioid receptor (Rattus norvegicus, UniProt P33533); settings: read-out: δ IC50; homogenates of rat brain minus cerebellum; prototype ligand DADLE
μ opioid receptor = μ opioid receptor (Rattus norvegicus, UniProt P33535); settings: read-out: μ IC50; homogenates of rat brain minus cerebellum; prototype ligand DHM
Chain of μ opioid receptor (P33535 whole entry): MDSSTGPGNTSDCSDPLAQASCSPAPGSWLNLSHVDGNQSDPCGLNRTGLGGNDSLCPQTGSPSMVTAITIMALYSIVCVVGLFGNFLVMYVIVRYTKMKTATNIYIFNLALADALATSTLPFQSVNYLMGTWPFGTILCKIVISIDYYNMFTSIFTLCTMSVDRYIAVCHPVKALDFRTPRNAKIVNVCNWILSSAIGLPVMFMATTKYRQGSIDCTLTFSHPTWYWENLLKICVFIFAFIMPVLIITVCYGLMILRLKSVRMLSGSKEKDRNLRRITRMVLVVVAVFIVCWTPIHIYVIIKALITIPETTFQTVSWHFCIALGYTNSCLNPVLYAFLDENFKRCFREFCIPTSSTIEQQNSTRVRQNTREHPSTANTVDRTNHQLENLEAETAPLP

Chain of δ opioid receptor (P33533 whole entry): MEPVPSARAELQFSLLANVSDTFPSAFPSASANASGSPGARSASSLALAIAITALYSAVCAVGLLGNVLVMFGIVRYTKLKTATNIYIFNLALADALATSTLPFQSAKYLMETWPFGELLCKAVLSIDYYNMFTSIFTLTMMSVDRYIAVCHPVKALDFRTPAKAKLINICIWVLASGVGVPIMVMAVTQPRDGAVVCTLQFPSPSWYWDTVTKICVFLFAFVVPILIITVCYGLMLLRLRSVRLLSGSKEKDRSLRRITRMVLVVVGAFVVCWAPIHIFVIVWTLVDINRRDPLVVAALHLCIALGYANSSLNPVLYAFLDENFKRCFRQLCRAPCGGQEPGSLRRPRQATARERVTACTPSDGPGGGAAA
Chain of κ opioid receptor (P34975 whole entry): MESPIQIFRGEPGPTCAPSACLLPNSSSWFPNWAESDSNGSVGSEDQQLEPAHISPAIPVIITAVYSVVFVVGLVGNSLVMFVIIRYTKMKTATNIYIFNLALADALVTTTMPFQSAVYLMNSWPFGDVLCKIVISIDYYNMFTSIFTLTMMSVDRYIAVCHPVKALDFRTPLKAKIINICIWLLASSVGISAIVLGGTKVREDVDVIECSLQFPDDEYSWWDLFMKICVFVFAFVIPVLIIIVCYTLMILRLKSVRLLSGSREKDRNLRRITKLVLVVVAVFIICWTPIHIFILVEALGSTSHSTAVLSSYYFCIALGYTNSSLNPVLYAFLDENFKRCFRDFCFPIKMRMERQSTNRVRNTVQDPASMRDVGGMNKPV

In the case of `C=C1CC[C@@]2(O)[C@H]3Cc4ccc(O)c5c4[C@@]2(CCN3CC2CC2)[C@H]1O5` [Nalmefene], the IC50 (κ opioid receptor) is given as 5.3 nM, the IC50 (δ opioid receptor) is given as 6.1 nM and the IC50 (μ opioid receptor) is given as 1 nM.
